Where two headings read alike, the source gives them in different places.
Key:
[1] = from CC(C)(C)OC(=O)N1CC[C@H](Nc2cnc3ccc(Br)c(O)c3n2)C[C@H]1C(=O)NCCCO, ether bond, PPh3 / di-tert-butyl azodicarboxylate, tetrahydrofuran, 25.0 °C
[2] = from CC(C)(C)OC(=O)N1CC[C@H](Nc2cnc3ccc(Br)c(O)c3n2)C[C@H]1C(=O)NCCCO, ether bond, 14-membered ring, PPh3/DTBAD, THF, 5.0 mM, 25.0 °C

**Q.** Which results are given for `CC(C)(C)OC(=O)N1CC[C@H]2C[C@H]1C(=O)NCCCOc1c(Br)ccc3ncc(nc13)N2`?
**A.** ring closure, yield of all isomers ([1]; 4.91 mM, 12.0 h): 61%; ring closure, yield of all isomers ([1]; 4.92 mM, 2.0 h): 70%; ring closure, isolated yield ([2]; 2.0 h): 70%; ring closure, isolated yield ([2]; 12.0 h): 61%
